Source: patent US20230116196A1, “METHOD OF TREATING CNS DISORDERS WITH NEU[…] GABAERGIC COMPOUNDS” (priority 2017, published 2023)

What was measured:
α4β3δ GABAA receptors = biological target: T1, α4β3δ GABAA receptors (Homo sapiens, UniProt O14764+P28472+P48169); test: Whole-cell patch clamp: potentiation of GABA EC20 currents at recombinant α4β3δ GABAA receptors; format: cell-based
T1 construct: expressed in transfected cells; host or cells: CHO cells, transiently transfected (Lipofectamine)
Experimental: Cellular electrophysiology was used to measure the pharmacological properties of ALLO, ganaxolone and SGE-516 in heterologous cell systems. Compounds were tested for their ability to affect GABA mediated currents at a submaximal agonist dose (GABA EC20=2 μM).
LTK cells were stably transfected with the α1β2γ2 subunits of the GABA receptor and CHO cells are transiently transfected with the α4β3γ subunits via the Lipofecatamine method. Cells were passaged at a confluence of about 50-80% and then seeded onto 35 mm sterile culture dishes containing 2 ml culture complete medium without antibiotics or antimycotics. Cells were cultivated at a density that enabled the recording of single cells without visible connections to other cells.
Whole-cell currents were measured with HEKA EPC-10 amplifiers using PatchMaster software. Bath solution for all experiments contained (in mM): NaCl 137, KCl 4, CaCl2 1.8, MgCl2 1, HEPES 10, D-Glucose 10, pH 7.4 with NaOH. Intracellular (pipette) solution contained (in mM): KCl 130, MgCl2 1, Mg-ATP 5, HEPES 10, EGTA 5, pH 7.2 with KOH. During experiments, cells and solutions were maintained at room temperature (19° C.-30° C.). For manual patchclamp recordings, cell culture dishes were placed on the dish holder of the microscope and continuously perfused (1 ml/min) with bath solution. After formation of a Gigaohm seal between the patch electrode and the cell (pipette resistance range: 2.5 MΩ-6.0MΩ; seal resistance range: >1 GΩ) the cell membrane across the pipette tip was ruptured to assure electrical access to the cell interior (whole-cell patch configuration).
Cells were voltage-clamped at a holding potential of −80 mV. GABAA receptors were activated by 2 μM GABA and compounds were sequentially applied at increasing concentrations for 30 s prior to a 2 s application of GABA. GABA and compounds were applied to cells via the Dynaflow perfusion system (Cellectricon, Sweden). Test compounds were dissolved in DMSO to form 10 mM stock solution and serially diluted to 0.01, 0.1, 1, and 10 μM in bath solution. There was no effect on GABA currents when DMSO was applied to cells at its maximal concentration in solution (0.1%). All concentrations of test compound were tested on each cell. The relative percentage potentiation was defined as the peak amplitude in response to GABA EC20 in the presence of test compound divided by the peak amplitude in response to GABA EC20 alone, multiplied by 100.
ALLO and ganaxolone are known PAMs of both synaptic and extrasynaptic GABAAR-mediated currents. The ability of candidate compound SGE-516 to act as a PAM was compared to ALLO and ganaxolone using the whole-cell recordings of recombinant human GABAA receptors expressed in mammalian cells. The α1β2γ2 or α4β3δ subunit combinations were chosen as representatives of typical synaptic and extrasynaptic GABAA receptors respectively. Similar to previous reports (Botella et al., 2015), ALLO, ganaxolone and SGE-516 allosterically potentiated currents induced by EC20 concentration of GABA in a concentration-dependent manner in both synaptic- and extrasynaptic-type GABAARs.

[1] = test system: dentate gyrus granule cells (DGGCs); format: cell-based, mouse; conditions: for tonic current after exposure and washout: 30-60 min wash, vehicle control 43.9±5.7 pA; for concentration dependence of tonic current after exposure and washout: maximal effects at 1 μM; for tonic current versus vehicle treated slices with PKC inhibitor GFX: GFX 50 μM 15 min, then co-exposure 15 min, ≥30 min washout
Experimental: Brain slices were prepared from 3- to 5-week-old male C57 mice. Mice were anesthetized with isoflurane, decapitated, and brains were rapidly removed and submerged in ice-cold cutting solution containing (mM): 126 NaCl, 2.5 KCl, 0.5 CaCl2, 2 MgCl2, 26 NaHCO3, 1.25 NaH2PO4, 10 glucose, 1.5 sodium pyruvate, and 3 kynurenic acid. Coronal 310 μm thick slices were cut with the vibratome VT1000S (Leica Microsystems, St Louis, Mo., USA). The slices were then transferred into incubation chamber filled with prewarmed (31-32° C.) oxygenated artificial cerebro-spinal fluid (ACSF) of the following composition (in mM): 126 NaCl, 2.5 KCl, 2 CaCl2, 2 MgCl2, 26 NaHCO3, 1.25 NaH2PO4, 10 glucose, 1.5 sodium pyruvate, 1 glutamine, 3 kynurenic acid and 0.005 GABA bubbled with 95% O2-5% CO2. Slices were allowed to recover at 32° C. for at least 1 hr before recording. Exogenous GABA was added in an attempt to standardize ambient GABA in the slice and provide an agonist source for newly inserted extrasynaptic GABAARs.
After recovery, a single slice was transferred to a submerged, dual perfusion recording chamber (Warner Instruments, Hamden, Conn., USA) on the stage of an upright microscope (Nikon FN-1) with a 40× water immersion objective equipped with DIC/IR optics. Slices were maintained at 32° C. and gravity-superfused with ACSF solution throughout experimentation and perfused at rate of 2 ml/min with oxygenated (O2/CO2 95/5%) ACSF.
Whole-cell currents were recorded from the dentate gyrus granule cells (DGGCs) in 310-μm-thick coronal hippocampal slices. Patch pipettes (5-7MΩ) were pulled from borosilicate glass (World Precision Instruments) and filled with intracellular solution of the composition (in mM) as follows: 140 CsCl, 1 MgCl2, 0.1 EGTA, 10 HEPES, 2 Mg-ATP, 4 NaCl and 0.3 Na-GTP (pH=7.2 with CsOH). A 5 min period for stabilization after obtaining the whole-cell recording conformation (holding potential of −60 mV) was allowed before currents were recorded using an Axopatch 200B amplifier (Molecular Devices), low-pass filtered at 2 kHz, digitized at 20 kHz (Digidata 1440A; Molecular Devices), and stored for offline analysis.
For tonic current measurements, an all-points histogram was plotted for a 10 s period before and during 100 μM picrotoxin application, once the response reached a plateau level. Recordings with unstable baselines were discarded. Fitting the histogram with a Gaussian distribution gave the mean baseline current amplitude and the difference between the amplitudes before and during picrotoxin was considered to be the tonic current. The negative section of the all-points histogram which corresponds to the inward IPSCs was not fitted with a Gaussian distribution (Kretschmannova et al., 2013; Nusser and Mody, 2002). Series resistance and whole-cell capacitance were continually monitored and compensated throughout the course of the experiment. Recordings were eliminated from data analysis if series resistance increased by >20%. Spontaneous inhibitory post-synaptic currents (sIPSCs) were analyzed using the mini-analysis software (version 5.6.4; Synaptosoft, Decatur, Ga.). Minimum threshold detection was set to 3 times the value of baseline noise signal. To assess sIPSC kinetics, the recording trace was visually inspected and only events with a stable baseline, sharp rising phase, and single peak were used to negate artifacts due to event summation. Only recordings with a minimum of 200 events fitting these criteria were analyzed. sIPSCs amplitude, and frequency from each experimental condition was pooled and expressed as mean±SEM. To measure sIPSC decay, 100 consecutive events were averaged and the decay was fitted to a double exponential and the weighted decay constant (tw) was determined. Statistical analysis was performed by using Student t-test (paired and unpaired where appropriate), where p<0.05 is considered significant.

[2] = potentiation of current at GABA EC20 (2 μM), n = 3

T1 sequence (P48169 36-554): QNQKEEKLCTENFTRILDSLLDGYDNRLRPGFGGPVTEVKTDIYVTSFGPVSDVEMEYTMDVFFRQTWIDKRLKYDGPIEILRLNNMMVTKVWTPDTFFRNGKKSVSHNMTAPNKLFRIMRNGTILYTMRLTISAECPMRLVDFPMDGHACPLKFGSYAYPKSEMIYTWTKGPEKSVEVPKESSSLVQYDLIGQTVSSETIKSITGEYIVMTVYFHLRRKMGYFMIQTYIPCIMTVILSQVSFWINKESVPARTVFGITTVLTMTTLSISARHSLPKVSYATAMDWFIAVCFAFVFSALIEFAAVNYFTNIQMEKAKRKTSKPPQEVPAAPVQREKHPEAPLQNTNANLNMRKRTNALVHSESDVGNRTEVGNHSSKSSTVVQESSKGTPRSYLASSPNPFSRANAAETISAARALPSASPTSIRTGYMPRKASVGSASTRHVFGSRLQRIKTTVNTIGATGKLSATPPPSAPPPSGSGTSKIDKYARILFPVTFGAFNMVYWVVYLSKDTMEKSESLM
T1 sequence (P28472 26-473): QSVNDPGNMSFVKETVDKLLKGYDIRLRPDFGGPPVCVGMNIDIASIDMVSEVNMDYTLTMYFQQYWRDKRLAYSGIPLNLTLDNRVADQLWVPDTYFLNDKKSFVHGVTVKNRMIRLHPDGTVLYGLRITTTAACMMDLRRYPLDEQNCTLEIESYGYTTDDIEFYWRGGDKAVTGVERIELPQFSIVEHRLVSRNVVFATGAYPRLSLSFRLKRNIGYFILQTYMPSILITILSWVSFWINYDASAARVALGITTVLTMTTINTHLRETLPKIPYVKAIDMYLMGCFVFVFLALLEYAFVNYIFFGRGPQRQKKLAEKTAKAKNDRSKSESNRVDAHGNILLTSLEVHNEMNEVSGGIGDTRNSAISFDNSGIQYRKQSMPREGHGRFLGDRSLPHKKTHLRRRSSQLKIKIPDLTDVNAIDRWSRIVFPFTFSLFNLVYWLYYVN
T1 sequence (O14764 25-452): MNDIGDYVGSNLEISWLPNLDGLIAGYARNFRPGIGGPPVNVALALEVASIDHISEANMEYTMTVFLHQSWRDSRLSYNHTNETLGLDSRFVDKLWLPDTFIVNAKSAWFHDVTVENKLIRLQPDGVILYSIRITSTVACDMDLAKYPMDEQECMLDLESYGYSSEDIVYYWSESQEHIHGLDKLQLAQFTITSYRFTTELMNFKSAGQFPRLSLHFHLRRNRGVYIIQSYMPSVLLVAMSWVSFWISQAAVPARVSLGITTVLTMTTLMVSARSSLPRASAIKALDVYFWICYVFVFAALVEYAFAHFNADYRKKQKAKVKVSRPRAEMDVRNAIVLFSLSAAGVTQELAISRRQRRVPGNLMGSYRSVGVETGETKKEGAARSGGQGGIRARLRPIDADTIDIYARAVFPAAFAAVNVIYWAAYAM

| Structure (SMILES) | pEC50 ± S.E.M., α4β3δ (α4β3δ GABAA receptors; [2]) | tonic current after 100 nM exposure and washout, WT slices [1] | tonic current after exposure and washout ([1]; 1 μM, 15 min incubation) | concentration dependence of tonic current after exposure and washout ([1]; 15 min incubation, wash) | tonic current versus vehicle treated slices with PKC inhibitor GFX [1] | magnitude of tonic current versus control ([1]; 1 μM, 15 min incubation, wash) | EC50 (α4β3δ GABAA receptors; [2]) | Emax ± S.E.M., α4β3δ (α4β3δ GABAA receptors; relative percentage potentiation of GABA EC20 current) |
| --- | --- | --- | --- | --- | --- | --- | --- | --- |
| CC(=O)[C@H]1CC[C@H]2[C@@H]3CC[C@H]4C[C@H](O)CC[C@]4(C)[C@H]3CC[C@]12C [ALLO, Allopregnanolone] | 7.2 ± 0.3 | significant increase | 95.8±10.8 pA | concentration-dependent increase | no significant difference |  |  |  |
| CC(=O)[C@H]1CC[C@H]2[C@@H]3CC[C@H]4C[C@](C)(O)CC[C@]4(C)[C@H]3CC[C@]12C [Ganaxolone] | 7.0 ± 0.1 |  | 57.4±6.3 pA |  |  | did not significantly alter |  |  |
| C[C@@]1(O)CC[C@@]2(C)[C@H](CC[C@@H]3[C@@H]2CC[C@]2(C)[C@@H](C(=O)Cn4nccn4)CC[C@@H]32)C1 [SGE-516] |  | significant increased | 123.0±22.2 pA | concentration-dependent increase | no significant difference |  | 193 nM | 505 ± 19% |
